Where two headings read alike, the source gives them in different places.
Key:
ABL1(wt) = ABL1(wt) (Homo sapiens, UniProt P00519); test: Z′-LYTE assay (labeled peptide cleavage), ABL1(wt); type: biochemical
Excerpt: (§1) This Example describes a cell-free assay utilized to identify candidate compounds that bind to and inhibit protein kinase (PK) and PK variants. One assay is referred to as a “Z′-LYTE assay” and is an example of a labeled peptide cleavage assay. The fluorescence-based assay relies on the differential sensitivity of a small, dual-end-labelled peptide to cleavage by a protease, dependent on the phosphorylation state of the peptide (FIG. 1). The peptide substrate is end-labelled with two distinct fluorophores that comprise a Fluorescence Resonance Energy Transfer (FRET) pair.
(§2) In the absence of inhibitor, the kinase transfers the gamma-phosphate from ATP to the single, unique tyrosine, serine or threonine in the synthetic FRET peptide. The reaction conditions are titrated such that 10-40% of the peptide substrate is phosphorylated. In a second reaction, a site-specific protease that only recognizes and cleaves the non-phosphorylated FRET peptide is added. Cleavage interferes with FRET between the donor (i.e., coumarin) and the acceptor (i.e., fluorescein) fluorophores on the FRET-peptide substrate, unlike the phosphorylated, uncleaved peptide.
(§3) The Test Compounds are screened in 1% DMSO (final) in the well.
(§4) All Peptide/Kinase Mixtures are diluted to a 2× working concentration in the appropriate Kinase Buffer. The 2×ABL1 polypeptide/Tyr 02 substrate peptide mixture is prepared in 50 mM HEPES pH 7.5, 0.01% BRIJ-35, 10 mM MgCl2, 1 mM EGTA. The final 10 μL Kinase Reaction contains 0.3-1.2 ng ABL1 (or 1.36-6 ng ABL1(T315I)) and 2 μM Tyr 02 in 50 mM HEPES, pH 7.5, 0.01% BRIJ-35, 10 mM MgCl2, 1 mM EGTA. After the 1-hour Kinase Reaction incubation, 5 μL of a 1:128 dilution of Development Reagent A is added. The ABL1(wt) polypeptide utilized for the assay described in this Example was the “isoahABL1(wt)” polypeptide described herein (SEQ ID NO:4), which is referred to as “ABL1” in Table 1 and “ABL1(wt)” or “WT” in Table 3 of this Example. The ABL1 variant polypeptides utilized contained the same polypeptide as the “isoahABL1(wt)” polypeptide except that each contained one corresponding amino acid substitution chosen from E255K, F317I, F317L, G250E, T315I or Y253F. […]
(§5) All ATP Solutions are diluted to a 4× working concentration in Kinase Buffer (50 mM HEPES, pH 7.5, 0.01% BRIJ-35, 10 mM MgCl2, 1 mM EGTA). The ATP Km apparent (Km app) is previously determined using a Z′-LYTE assay.
(§6) Bar-coded Corning, low volume NBS, black 384-well plate (Corning Cat. #4514) • 1. […] Read on fluorescence plate reader and analyze the data
A known inhibitor control standard curve, 10-point titration, is run for each individual kinase on the same plate as the kinase to ensure the kinase is inhibited within an expected IC50 range previously determined. […]

ABL1 T315I = target: T1, ABL1 T315I (Homo sapiens, UniProt P00519, T315I); test: Z′-LYTE assay, ABL1 T315I; type: biochemical
T1 construct: The ABL1 variant polypeptides utilized contained the same polypeptide as the “isoahABL1(wt)” polypeptide except that each contained one corresponding amino acid substitution
Excerpt: as §1, §2, §3, §4, §5, §6

K562 = test: In vitro cytotoxic activity (CellTiterGlo), K562 (CML); type: cell-based; details: Homo sapiens, 48-hours, read-out: K562 LD50
Procedure: (§7) Non-metabolized targeted toxicity, or general toxicity, of compounds was assessed by treating a panel of selected cell lines in culture with a dilution series of test compounds and the lethal dose that will kill half of the cells (i.e., the LD50) was determined. Compounds herein were assayed against a panel of cytokine-independent Philadelphia chromosome (BCR-ABL1 translocation) positive (Ph+) leukemia and lymphoma cell lines along with several control cell lines that were ABL1-independent. The panel included murine cell lines BaF3-wildtype (wt), BaF3-mutants (BaF3-wt cells engineered to be reliant on various kinase domain mutations with the BCR-ABL1 fusion protein), and various ALL and CML human cell lines, including SD-1, TOM-1, NALM-21, K562, Jeko-1, BV173, and KCL-22.
(§8) To test the cytotoxic activity of compounds herein, 1.6E4 cells were plated in 96-well plates at a final volume of 135 μL per well. Compounds were then added to the wells. In general, final concentrations of compounds started at a maximum concentration of […] and were diluted by half-log concentrations down to a final concentration of 0.316 nM. However, different cell lines required varying drug concentration ranges for optimal LD50 calculations. To create half-log dilutions, 40 mM DMSO solutions of compounds were diluted in half-log iterations to generate 400× starting concentration of compounds in DMSO. The 400× compound solutions were then diluted by 40-fold by adding 5 μL of 400× DMSO stock to 195 μL cell culture media, generating 10× drug concentrations in cell culture media. Then 15 μL of the 10× drug solutions were added to the 135 μL volume of cell suspension, resulting in 1× final drug concentrations with 0.25% DMSO in all wells. 48-hours after adding compounds, cells were measured for relative viability to generate cytotoxicity curves associated with the varying concentrations of compounds. […] LD50 values were measured by normalizing luminescence intensity to the lowest drug concentration. GraphPad Prism was used to plot and calculate LD50 values from the cytotoxic kill curves. Curves were fit to a non-linear regression model, with compound concentration vs. response and variable slope (four parameters).

NALM-21 = test: In vitro cytotoxic activity (CellTiterGlo), NALM-21 (ALL); type: cell-based; details: Homo sapiens; 48-hours; read-out: NALM-21 LD50
Procedure: as §7, §8

[1] = non-GLP multi-dose toxicity study (dose escalation, daily IP injection); type: in vivo, mouse (6-week-old Balb/c females); details: mice; for tolerability: daily IP
Procedure: An initial non-GLP multi-dose toxicity study of Cmpd11 and Cmpd66 was performed, which included a comparison to COM1 and COM3 clinical compounds. […] Body weights were recorded 2× weekly for healthy mice followed by weekly in the recovery phase. Blood draws were taken, retro-orbitally, every other week (for a total of three blood draws per group) to determine the plasma levels of compounds throughout the duration of the study (unless mice were euthanized prior to completion of the 28-day dosing period). […] Any animals showing more than 9% weight loss were weighed every day and animals were euthanized after a weight loss of 15% or more or evidence of high distress (e.g., listless, hunched posture, high grimace score). Also, plasma samples were drawn at euthanasia. Control groups included vehicle only and no manipulation.
A summary of the study is illustrated in FIG. 14. There are six groups with 90 mice total and following is an overview of groups for the study.
The following are criteria for dose escalation and staggering of group starting points. Animals in each group are monitored after the initial dose for 3-4 days, and if there is no observed dose-limiting toxicity (DLT), then a separate cohort of naïve animals are administered the next higher dose level. Note that each cohort of animals receives the same drug and drug dose for the duration of the 28-day dosing period unless euthanasia is required. Animals in the second, dose-escalated group, are then monitored for 3-4 days, and if there is no observed DLT, animals from a fresh cohort are administered the next higher dose level, while continuing with the former cohorts up to 5 dose levels total. Animals in each cohort then are monitored after the third dose for 7 days, and if there is no observed DLT, then animals are administered the next higher doses. If DLT is observed during a monitoring period for any dose level, a subsequent dose is reduced by a level that is intermediate between the highest tolerated level tested and the minimum toxic level tested.

Structure (SMILES) | IC50 (K562) | IC50 (NALM-21) | other results
CNC(=O)c1ccc(C(=O)Nc2cc(Nc3ncc4cccc(-c5ccc(F)cc5OC(C)C)c4n3)ccc2C)cc1 [Cmpd10] |  |  | IC50 (ABL1(wt); class by IC50 values in Table 5, read-out: inhibitor class of ABL1(wt) according to IC50): < 20 nM; IC50 (ABL1(wt); test compounds, Z′-LYTE, read-out: IC50 values for test compounds, ABL1(wt)): 11.2 nM; IC50 (ABL1 T315I; class by IC50 values in Table 5, read-out: inhibitor class of ABL(T315I) according to IC50): < 20 nM; IC50 (ABL1 T315I; test compounds, Z′-LYTE, read-out: IC50 values for test compounds, ABL1(T315I)): 3.86 nM
Cc1ccc(Nc2ncc3cccc(-c4ccc(F)cc4OC(C)C)c3n2)cc1NC(=O)c1ccc(C(=O)N2CCN(C)CC2)cc1 [Cmpd44, N-(5-((8-(4-fluoro-2-isopropoxyphenyl)quinazolin-2-yl)amino)-2-methylphenyl)-4-(4-methylpiperazine-1-carbonyl)benzamide] | 300 nM | 281 nM | 
Cc1ccc(Nc2ncc3cccc(-c4ccc(F)cc4OC(C)C)c3n2)cc1NC(=O)CN1CCN(C)CC1 [Cmpd58, N-(5-((8-(4-fluoro-2-isopropoxyphenyl)quinazolin-2-yl)amino)-2-methylphenyl)-2-(4-methylpiperazin-1-yl)acetamide] | 124 nM | 134 nM | 
Cc1ccc(Nc2ncc3cccc(-c4ccc(F)cc4OC(C)C)c3n2)cc1NC(=O)C1CCN(C)CC1 [Cmpd66, N-(5-((8-(4-fluoro-2-isopropoxyphenyl)quinazolin-2-yl)amino)-2-methylphenyl)-1-methylpiperidine-4-carboxamide] | 141 nM | 133 nM | tolerability relative to COM1 ([1]; at doses required to reach the in vitro K562-Luc EC50 plasma levels in vivo, early results): more tolerable than COM1; tolerability ([1]; 1.5 mg/kg, through day 24): well tolerated; tolerability ([1]; 4.5 mg/kg, at day 21): well tolerated; tolerability ([1]; maximum dose of 18 mg/kg, at day 14): well tolerated
Cc1ccc(C(=O)Nc2ccc(CN3CCN(C)CC3)c(C(F)(F)F)c2)cc1C#Cc1cnc2cccnn12 [ponatinib] | 3250 nM | 3600 nM | 

Reference: patent US20260297035A1, “PROTEIN KINASE INHIBITORS AND USES THEREOF” (DELiver Therapeutics, Inc., priority 2023, published 2026)
